Source: ChEMBL document CHEMBL5528047, “A Potent SOS1 PROTAC Degrader with Synergistic Efficacy in Combination with KRASG12C Inhibitor” (J Med Chem, 2024)
The source made the active and inactive calls. The rule behind the calls is not given here.

Tests used:
[1] = Half life in ICR mouse at 10 mg/kg, po measured upto 24 hrs by LC-MS/MS analysis; type: ADME, organism-based; details: in vivo
[2] = Cmax in ICR mouse at 10 mg/kg, po measured upto 24 hrs by LC-MS/MS analysis; type: ADME, organism-based; details: in vivo
[3] = biological target: T1, von Hippel-Lindau disease tumor suppressor/Son of sevenless homolog 1 (Homo sapiens, UniProt Q07889+P40337); experiment: Protac activity at VHL/SOS1 in human MIA PaCa-2 cells assessed as SOS1 degradation at 1 uM preincubated with MLN4924 for 2 hrs followed by compound addition and measured after 3 hrs by Western blotting analysis; type: cell-based
[4] = tested on: NCI-H358; experiment: Antiproliferative activity against human NCI-H358 cells incubated for 6 days by CCK8 assay; type: functional, cell-based; details: NCI-H358, 144 h
[5] = tested on: Mus musculus; experiment: In vivo induction of SOS1 degradation in human K562 cells xenografted in NOD-SCID mouse assessed as reduction in SOS1 level at 25 mg/kg, ip measured after 24 hrs by immunoblotting analysis; type: functional, organism-based
[6] = biological target: T1, von Hippel-Lindau disease tumor suppressor/Son of sevenless homolog 1; experiment: Protac activity at VHL/SOS1 in human K562 cells assessed as SOS1 degradation at 1 uM preincubated with BI3406 for 2 hrs followed by compound addition and measured after 2 hrs by Western blotting analysis; type: cell-based
[7] = biological target: T1, von Hippel-Lindau disease tumor suppressor/Son of sevenless homolog 1; experiment: Protac activity at VHL/SOS1 in human PANC-1 cells assessed as SOS1 degradation at 1 uM by Western blotting analysis relative to control; type: cell-based
[8] = biological target: T2, Son of sevenless homolog 1 (Homo sapiens) (UniProt Q07889); experiment: Induction of SOS1 degradation in human NCI-H358 cells at 1 uM measured upto 72 hrs by Western blotting analysis; type: cell-based
T2 sequence (whole entry): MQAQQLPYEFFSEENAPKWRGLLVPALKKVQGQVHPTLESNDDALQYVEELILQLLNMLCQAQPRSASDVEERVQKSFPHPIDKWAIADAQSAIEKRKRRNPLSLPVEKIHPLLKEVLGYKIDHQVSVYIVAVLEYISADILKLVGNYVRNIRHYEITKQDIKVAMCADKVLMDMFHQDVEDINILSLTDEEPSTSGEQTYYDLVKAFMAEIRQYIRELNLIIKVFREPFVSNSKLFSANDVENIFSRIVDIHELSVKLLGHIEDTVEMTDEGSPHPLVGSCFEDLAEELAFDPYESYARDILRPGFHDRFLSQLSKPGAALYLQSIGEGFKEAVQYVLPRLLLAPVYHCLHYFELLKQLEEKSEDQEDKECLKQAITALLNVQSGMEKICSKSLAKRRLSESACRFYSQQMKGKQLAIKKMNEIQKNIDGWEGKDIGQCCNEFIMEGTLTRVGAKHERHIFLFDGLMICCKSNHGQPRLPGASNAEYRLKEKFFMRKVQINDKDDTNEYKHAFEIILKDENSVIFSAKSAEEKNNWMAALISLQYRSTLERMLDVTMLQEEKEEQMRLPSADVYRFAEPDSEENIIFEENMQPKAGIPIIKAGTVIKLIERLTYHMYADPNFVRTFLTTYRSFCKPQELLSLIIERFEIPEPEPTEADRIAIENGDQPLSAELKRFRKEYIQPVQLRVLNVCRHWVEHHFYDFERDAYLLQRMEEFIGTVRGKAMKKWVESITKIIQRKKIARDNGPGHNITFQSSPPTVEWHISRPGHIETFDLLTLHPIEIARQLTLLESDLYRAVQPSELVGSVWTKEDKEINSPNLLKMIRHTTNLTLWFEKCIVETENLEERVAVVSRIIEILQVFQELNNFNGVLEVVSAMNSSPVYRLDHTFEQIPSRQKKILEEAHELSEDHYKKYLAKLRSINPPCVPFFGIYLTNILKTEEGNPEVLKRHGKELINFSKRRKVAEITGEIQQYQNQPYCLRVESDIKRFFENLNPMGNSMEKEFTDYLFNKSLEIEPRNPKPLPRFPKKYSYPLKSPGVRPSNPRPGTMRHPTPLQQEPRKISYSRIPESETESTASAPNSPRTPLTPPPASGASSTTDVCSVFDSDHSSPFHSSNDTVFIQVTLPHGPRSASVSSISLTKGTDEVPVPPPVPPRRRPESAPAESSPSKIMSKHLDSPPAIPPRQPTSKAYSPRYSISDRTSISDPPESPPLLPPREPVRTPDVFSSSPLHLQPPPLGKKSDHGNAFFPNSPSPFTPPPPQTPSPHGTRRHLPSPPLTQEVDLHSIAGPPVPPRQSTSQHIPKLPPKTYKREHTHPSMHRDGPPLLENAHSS

[9] = biological target: T1, von Hippel-Lindau disease tumor suppressor/Son of sevenless homolog 1; experiment: Protac activity at VHL/SOS1 in human K562 cells assessed as SOS1 degradation at 1 uM preincubated with MLN4924 for 2 hrs followed by compound addition and measured after 2 hrs by Western blotting analysis; type: cell-based
[10] = Toxicity in BALB/c mouse xenografted with human NCI-H358 cells assessed as body weight loss at 30 mg/kg, ip administered once daily for 28 days in presence of 10 mg/kg 4-((S)-4-acryloyl-2-methylpiperazin-1-yl)-6-fluoro-7-(2-fluoro-6-hydroxyphenyl)-1-(2-isopropyl-4-methylpyridin-3-yl)pyrido[2,3-d]pyrimidin-2(1H)-one; type: organism-based; details: in vivo, 672 h, time 28 day
[11] = biological target: T1, von Hippel-Lindau disease tumor suppressor/Son of sevenless homolog 1; experiment: Protac activity at VHL/SOS1 in human PANC-1 cells assessed as SOS1 degradation at 10 uM by Western blotting analysis relative to control; type: cell-based

T1 sequence (P40337 whole entry, looked up, one chain of several): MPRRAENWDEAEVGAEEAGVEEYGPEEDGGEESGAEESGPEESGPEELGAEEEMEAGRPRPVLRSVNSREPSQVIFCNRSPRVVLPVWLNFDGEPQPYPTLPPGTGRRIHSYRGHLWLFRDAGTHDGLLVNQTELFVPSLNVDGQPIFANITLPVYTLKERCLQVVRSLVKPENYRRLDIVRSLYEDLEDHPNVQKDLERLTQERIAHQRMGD

## COc1cc2nc(C)nc(N[C@H](C)c3cc(N)cc(C(F)(F)F)c3)c2cc1OCCCCC(=O)N[C@H](C(=O)N1C[C@H](O)C[C@H]1C(=O)NCc1ccc(-c2scnc2C)cc1)C(C)(C)C
[1]
  half-life: 4.19 h
[2]
  Cmax: 1650 ng/mL
[3]
  Activity: inactive
[4]
  IC50: 2450 nM
[5]
  Activity: Active
[6]
  Activity: inactive
[7]
  Activity: 90.9%
[8]
  Activity: Active
[9]
  Activity: inactive
[10]
  Activity: Non-Toxic
[11]
  Activity: 93.9%
